Data set [1] relates to HL60 leukemia cells. Kind of data set: Macrophage phagocytosis of HL60 leukemia cells (flow cytometry). In kind it is cell-based, human. The settings on record: azacitidine 1 μM. As to the method:
Macrophages were labeled with an anti-CD206 Ab and all cells were analyzed by flow cytometry to determine phagocytosis of HL60 leukemia cells. Phagocytosis of HL60 leukemia cells was determined as percentage of GFP positive, HL60 engulfing, macrophages compared to total number of macrophages. Results were normalized to the condition with maximal phagocytosis (100%).

The subject of data set [2] is AML. Nature of the data set: Pre-clinical models, trough level and anti-leukemic activity. In kind it is in vivo. As to the method:
(§1) This trough level served as the minimum trough level target to guide dosing in the Phase 1 trial. […] Rapid peaks and troughs observed were consistent with target-mediated disposition due to non-linear saturation of the CD47 sink. […] Dose levels of 10 mg/kg or greater (Cohorts 3 and 4) achieve target trough levels by about 4 weeks, which is the time of first response assessment.
(§2) Prospective testing of AML patients' molecular, chromosomal, and phenotypic characteristics by DNA sequencing, cytogenetic analysis/fluorescence in situ hybridization (FISH), and flow cytometry, can lead to identification of patients with greater responses to Hu5F9-G4.

Data set [3] relates to bone marrow macrophages and T cells. Nature of the data set: Immunohistochemistry of macrophages and T cells in patient bone marrow. In kind it is in vivo, human. The settings on record: patient with partial response. As to the method:
In one patient that obtained a partial response, macrophage and T cell infiltrates in the bone marrow was assessed.

Data set [4] concerns AML. Kind of data set: AML Phase 1 trial, clinical response. In kind it is in vivo, human. As to the method:
as §1
Several additional factors are notable for these patients with biologic activity.

The test system of data set [5] is myeloid mutations. Kind of data set: Targeted DNA sequencing of myeloid mutations in Phase 1 AML patients. The format is in vivo, human. The settings on record: Phase 1 AML patients receiving Hu5F9-G4.
Description: as §2

Data set [6] in a line: AML Phase 1 trial, serum concentrations of Hu5F9-G4. The format is in vivo, human. The note with it: patients. As to the method: as §1
Data set [7] concerns human AML. Nature of the data set: Human AML xenograft mouse model, early death and disease clearance. The format is in vivo. The source says: We have established a human AML xenograft mouse model to test CD47-SIRPalpha pathway blocking therapies.
We also observed that early death seemed to be related to burden of circulating disease, in that mice with high levels of circulating leukemia cells succumbed to early death.
The object of this study was to determine whether early death observed in AML-xenografted mice can be avoided by reducing the rate at which leukemia cells are killed. […] It was hypothesized that early death might be due either to agglutination of leukemic cells or tumor lysis, and that early death may be avoided by reducing the rate at which leukemia cells are killed.
All mice in the control group continuously progressed and died.
For orientation: A xenograft is tissue or cells of one species grown in another, often human tumour cells in immunodeficient mice.

Data set [8] concerns circulating WBC. Nature of the data set: AML Phase 1 trial, cytoreduction with concomitant Hu5F9-G4, safety. The note with it: any patients treated on Phase 1 trial. In kind it is in vivo, human.

“Also recorded” adds a separate entry of the source.

As for `Nc1ncn([C@@H]2O[C@H](CO)[C@@H](O)[C@H]2O)c(=O)n1` [Azacitidine], the “phagocytic elimination of HL60 leukemia cells by human macrophages” value in data set [1] is “did not enhance”.

Regarding “Hu5F9-G4: a humanized anti-CD47 antibody”, the “pre-clinical activity across AML subtypes” value in data set [2] (monotherapy, cytogenetic, molecular, phenotypic/morphologic subtypes) is “monotherapy activity across a wide range of cytogenetic, molecular, and phenotypic AML subtypes; also recorded: broad pre-clinical activity across AML morphologic, molecular, and cytogenetic subtypes”. Also, the “activity in relation to tumor burden” value in data set [2] (pre-clinical and initial clinical studies) is listed as “enhanced activity in lower tumor burden of disease”. Further, the “trough level associated with efficacy” value in data set [2] (pre-clinical models) was at least 100 µg/mL. Also, the “macrophages present in the marrow (CD68 or CD163 staining)” value in data set [3] (week 4 of treatment) is listed as “significant number of macrophages”. In addition, the “T cell infiltrates, of all bone marrow cells” value in data set [3] (week 8 of therapy, baseline 10-15% or 15%) is 40-50%. In addition, the blast reduction in data set [4] (Cohort 3, one patient with partial response) was over 50%. The RBC transfusion requirements result in data set [4] (Cohort 3, patient with partial response, month 3 and beyond of treatment) is “from approximately every week prior to treatment to once a month”. In data set [4] (Cohort 3, patient with partial response, ongoing), the duration of response entry is on record as “over 6 months”. The “patients exhibiting biologic antileukemic activity” value in data set [4] (maximum of 10 mg/kg twice weekly (Cohort 3)) is reported as “two out of three”. In data set [4] (patients, at or below 3 mg/kg (Cohorts 1 and 2)), the response to therapy result is recorded as “not expected nor observed”. The “mutational burden (variant allele frequency)” value in data set [5] is given as “Reduction in mutational burden (variant allele frequency) was observed for some mutations over others”. Moreover, the “achievement of target trough levels (100 μg/ml)” value in data set [6] (dose levels 3 mg/kg or less (Cohorts 1 and 2)) is recorded as “did not achieve target trough levels”. The “time to achieve target trough levels (100 μg/ml)” value in data set [6] (dose levels of 10 mg/kg or greater (Cohorts 3 and 4)) is listed as “about 4 weeks”. In addition, the “effect of intra-subject dose escalation (low doses first, then higher doses)” value in data set [7] (AML xenografted mice with high circulating burden) is reported as “prevented early mortality but also resulted in safe clearance of leukemic cells”. Moreover, the clearance of disease result is “disease was cleared” in data set [7] (Cohort I, 100 μg/day for 14 days, sole surviving mouse) and “noticeably diminished” in data set [7] (Cohort III, 7 doses of 1 μg, 7 doses of 10 μg, 14 doses of 100 μg). Further, the relapse entry in data set [7] (Cohort III, after end of treatment) is “relapsed several weeks after the end of treatment”. Also, the “effect of retreatment after relapse” value in data set [7] (groups that received dose-escalating regimen) is “cleared the disease and led to long-term disease free survival in some cases”. Further, the early death entry in data set [7] (initial dose 1 μg (Cohort III)) is “no early deaths and None”; in data set [7] (initial dose 10 μg (Cohort II)) it was 1 of 5 and One mouse out of five; in data set [7] (initial dose 100 μg (Cohort I)), “Four out of five”. Also, the “survival of subsequent doses” value in data set [7] (mouse, in vivo) is “remaining four mice survived”. Besides, the “time to death after administration of the first dose” value in data set [7] (xenografted mice with very high circulating AML burden (>50% of total WBC) and marrow infiltration) was at most 1 h. The “acute death related to Hu5F9-G4” value in data set [8] is recorded as “No acute death”.

Source of the values: US12194093B2, “Dosing parameters for CD47 targeting therapies to hematologic malignancies” (The Board of Trustees of the Leland Stanford Junior …, priority 2017, dated 2025).
